Source: US5824533A, “Orpinomyces xylanase proteins and coding sequences” (University of Georgia Research Foundation, Inc., priority 1995, dated 1998)
Values joined by “and” are separate entries in the source; they are usually repeats but may differ in a detail not shown here. Equal entries are not always repeated. “Also recorded” adds a separate entry of the source.

Test system: Orpinomyces sp. strain PC-2 endoxylanase XynA-1 (purified native enzyme, 29 kDa)
Assay: Effect of reagents on purified endoxylanase activity (residual activity on oat spelt xylan)
Assay type: biochemical
Experimental: Enzyme assays: All enzyme assays were carried out in duplicate and in 50 mM piperazine/HCl buffer at pH 5.5 and 40° C. unless otherwise stated.
a. Xylanase activity was assayed by mixing a 0.2 ml aliquot of diluted enzyme with 0.4 ml buffer containing 1.0% (w/v) oat spelt xylan (Sigma Chemical Co., St. Louis, Mo.), preheated to 40° C. After 15 min at 40° C., the reaction was terminated by the addition of 1.2 ml of 3,5-dinitrosalicylic acid (DNS) (Miller, 1959), followed by 0.2 ml of 2.5N NaOH to dissolve the residual water-insoluble xylan. The reaction tube was then placed in boiling water for 5 min before determining the absorbance at 550 nm (A550 nm). Xylose was used as the standard.
The effects of various metal ions and reagents on xylanase activity were determined in 50 mM piperazine-HCl, pH 5.5. The enzyme and metal ions or reagents (1 and 3 mM) were preincubated at 22° C. for 10 min; residual activities were measured at 40° C.

[1] = reagent 1 mM, preincubated 22° C. 10 min, residual activity at 40° C., 50 mM piperazine-HCl pH 5.5, control without reagent = 100%
[2] = reagent 3 mM, preincubated 22° C. 10 min, residual activity at 40° C., 50 mM piperazine-HCl pH 5.5, control without reagent = 100%
[3] = reagent 1 and 3 mM, 50 mM piperazine-HCl pH 5.5

Row | Structure (SMILES) | Relative activity (%) [1] [%] | Relative activity (%) [2] [%] | Effect on xylanase activity (in words) [3] | Effect on xylanase activity (in words) (reagent 1 mM) | Effect on xylanase activity (in words) (pH 5.5) | Relative activity (%) (pH 5.5)
1 | OCCS [β-Mercaptoethanol] | 96.7 | 95.4 | do not significantly effect xylanase activity |  |  | 
2 | O=[N+]([O-])c1ccc(O)c(CBr)c1 [2-Hydroxy-5-nitroxyl-5-nitrobenzyl-bromide] | 85.5 | 63.3 | inhibitory |  |  | 
3 | O=C1CCC(=O)N1Br [N-Bromosuccinimide] | 0 | 0 |  | total inactivation; also recorded: completely inhibited |  | 
4 | O=C(O)CN(CCN(CC(=O)O)CC(=O)O)CC(=O)O [EDTA] |  |  |  |  | do not significantly effect xylanase activity | 96.3% and 93.7%
5 | O=C(O)c1cc[c]([Hg+])cc1.[OH-] [Hydroxymercuribenzoate, p-hydroxymercuribenzoate] | 0 | 0 |  | total inactivation |  | 
